Assay results taken from patent publication US20090099029A1, “Methods and substrates for conducting assays” (Invitrogen Corporation, priority 2005, published 2009).

Columns and labels:
Assay in all cases: Further analysis of a plurality of inhibitors and a plurality of kinases (Table 5 inhibition results)
Type in all cases: biochemical
Design in all cases: scale not given here
kinases of Table 5 [1] = target: kinases of Table 5 (Homo sapiens, UniProt O75716); conditions: kinase STK16 (Part I, plate C3, Domain 1); inhibitor 100 uM
Chain of kinases of Table 5 (Homo sapiens, UniProt O75716) (O75716 whole entry): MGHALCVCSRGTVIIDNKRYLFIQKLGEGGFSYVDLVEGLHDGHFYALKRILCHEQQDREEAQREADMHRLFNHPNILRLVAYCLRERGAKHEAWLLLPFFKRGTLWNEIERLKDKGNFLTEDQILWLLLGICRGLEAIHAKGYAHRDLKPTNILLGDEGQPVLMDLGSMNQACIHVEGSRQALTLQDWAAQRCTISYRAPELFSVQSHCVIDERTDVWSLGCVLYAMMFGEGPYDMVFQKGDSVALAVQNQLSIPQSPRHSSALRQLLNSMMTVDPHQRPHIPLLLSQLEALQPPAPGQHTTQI
Excerpt: (§1) The wash solution is then discarded.

kinases of Table 5 [2] = target: kinases of Table 5 (Homo sapiens, UniProt P06239); conditions: kinase LCK (Part I, plate A6, Domain 0); inhibitor 100 uM
Chain of kinases of Table 5 (Homo sapiens, UniProt P06239) (P06239 whole entry): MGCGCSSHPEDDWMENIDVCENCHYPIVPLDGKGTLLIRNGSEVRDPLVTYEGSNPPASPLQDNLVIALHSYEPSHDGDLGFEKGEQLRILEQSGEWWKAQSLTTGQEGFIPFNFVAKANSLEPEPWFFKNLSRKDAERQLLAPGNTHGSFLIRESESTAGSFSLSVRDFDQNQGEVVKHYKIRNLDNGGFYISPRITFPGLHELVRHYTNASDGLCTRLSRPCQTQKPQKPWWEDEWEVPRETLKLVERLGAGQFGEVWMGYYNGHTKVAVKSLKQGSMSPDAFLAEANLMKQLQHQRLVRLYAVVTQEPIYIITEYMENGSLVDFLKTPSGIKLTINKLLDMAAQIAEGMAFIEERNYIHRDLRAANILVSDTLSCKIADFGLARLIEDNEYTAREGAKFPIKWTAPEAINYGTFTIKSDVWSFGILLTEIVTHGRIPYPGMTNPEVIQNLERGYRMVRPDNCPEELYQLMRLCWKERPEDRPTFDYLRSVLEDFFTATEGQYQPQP
Excerpt: as §1

kinases of Table 5 [3] = target: kinases of Table 5 (Homo sapiens, UniProt P07948); conditions: kinase LYN (Part I, plate A5, Domain 0); inhibitor 100 uM
Excerpt: as §1

kinases of Table 5 [4] = target: kinases of Table 5 (Homo sapiens, UniProt P07949); conditions: kinase RET (Part II, plate B7, Domain 1); inhibitor 100 uM
Chain of kinases of Table 5 (Homo sapiens, UniProt P07949) (P07949 29-1114): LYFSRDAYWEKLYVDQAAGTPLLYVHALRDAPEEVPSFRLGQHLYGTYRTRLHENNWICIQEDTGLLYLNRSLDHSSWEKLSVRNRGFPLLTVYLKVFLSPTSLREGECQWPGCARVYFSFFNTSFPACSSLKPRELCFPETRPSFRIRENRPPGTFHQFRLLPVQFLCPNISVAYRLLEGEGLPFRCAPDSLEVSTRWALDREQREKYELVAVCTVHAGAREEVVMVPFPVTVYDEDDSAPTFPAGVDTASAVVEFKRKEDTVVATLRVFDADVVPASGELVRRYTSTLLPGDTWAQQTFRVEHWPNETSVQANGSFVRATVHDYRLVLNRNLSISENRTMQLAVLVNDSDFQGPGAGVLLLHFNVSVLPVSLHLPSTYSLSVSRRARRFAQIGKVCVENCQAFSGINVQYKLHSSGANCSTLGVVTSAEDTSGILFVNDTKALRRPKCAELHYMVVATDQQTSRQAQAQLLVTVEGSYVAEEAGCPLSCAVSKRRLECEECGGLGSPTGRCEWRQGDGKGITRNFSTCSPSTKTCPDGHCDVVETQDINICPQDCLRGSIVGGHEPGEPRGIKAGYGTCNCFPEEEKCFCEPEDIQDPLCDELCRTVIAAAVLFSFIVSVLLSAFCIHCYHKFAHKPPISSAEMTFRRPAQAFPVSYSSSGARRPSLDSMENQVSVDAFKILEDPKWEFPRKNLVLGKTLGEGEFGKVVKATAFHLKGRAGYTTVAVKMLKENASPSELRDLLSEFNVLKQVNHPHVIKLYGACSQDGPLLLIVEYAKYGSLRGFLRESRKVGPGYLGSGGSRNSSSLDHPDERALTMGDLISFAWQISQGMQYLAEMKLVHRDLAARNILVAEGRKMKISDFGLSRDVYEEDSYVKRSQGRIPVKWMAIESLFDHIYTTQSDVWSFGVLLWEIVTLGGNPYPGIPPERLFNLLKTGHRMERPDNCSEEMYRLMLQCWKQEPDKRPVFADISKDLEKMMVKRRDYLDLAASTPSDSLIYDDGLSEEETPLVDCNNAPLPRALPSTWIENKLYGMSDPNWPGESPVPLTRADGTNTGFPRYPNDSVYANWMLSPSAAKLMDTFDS
Excerpt: as §1

kinases of Table 5 [5] = target: kinases of Table 5 (Homo sapiens, UniProt P09769); conditions: kinase FGR (Part II, plate B10, Domain 0); inhibitor 100 uM
Excerpt: as §1

kinases of Table 5 [6] = target: kinases of Table 5 (Homo sapiens, UniProt P21802); conditions: inhibitor 100 uM
Chain of kinases of Table 5 (Homo sapiens, UniProt P21802) (P21802 22-821): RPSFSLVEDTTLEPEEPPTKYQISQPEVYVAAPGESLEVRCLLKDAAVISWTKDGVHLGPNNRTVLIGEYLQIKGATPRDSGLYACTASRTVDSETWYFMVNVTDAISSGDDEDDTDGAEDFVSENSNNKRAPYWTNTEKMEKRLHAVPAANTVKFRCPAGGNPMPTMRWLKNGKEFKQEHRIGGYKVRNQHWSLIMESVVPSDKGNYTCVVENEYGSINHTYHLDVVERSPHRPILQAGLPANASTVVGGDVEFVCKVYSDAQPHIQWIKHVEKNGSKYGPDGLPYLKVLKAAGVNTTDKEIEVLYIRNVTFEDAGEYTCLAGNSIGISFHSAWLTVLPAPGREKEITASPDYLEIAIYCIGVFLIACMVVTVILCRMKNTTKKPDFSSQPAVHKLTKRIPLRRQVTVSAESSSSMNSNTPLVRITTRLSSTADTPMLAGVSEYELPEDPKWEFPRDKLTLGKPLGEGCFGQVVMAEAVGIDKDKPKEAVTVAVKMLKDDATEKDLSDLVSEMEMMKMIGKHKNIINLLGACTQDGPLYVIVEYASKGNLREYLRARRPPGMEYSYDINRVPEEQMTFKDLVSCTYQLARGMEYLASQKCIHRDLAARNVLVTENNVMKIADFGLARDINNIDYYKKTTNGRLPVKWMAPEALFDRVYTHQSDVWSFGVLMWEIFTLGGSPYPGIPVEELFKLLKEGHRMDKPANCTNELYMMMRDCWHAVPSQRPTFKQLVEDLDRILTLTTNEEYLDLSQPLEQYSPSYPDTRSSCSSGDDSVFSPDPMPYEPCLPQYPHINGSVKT
Excerpt: as §1

kinases of Table 5 [7] = target: kinases of Table 5 (Homo sapiens, UniProt P37173); conditions: kinase TGFBR2 (Part I, plate C7, Domain 1); inhibitor 100 uM
Chain of kinases of Table 5 (Homo sapiens, UniProt P37173) (P37173 23-567): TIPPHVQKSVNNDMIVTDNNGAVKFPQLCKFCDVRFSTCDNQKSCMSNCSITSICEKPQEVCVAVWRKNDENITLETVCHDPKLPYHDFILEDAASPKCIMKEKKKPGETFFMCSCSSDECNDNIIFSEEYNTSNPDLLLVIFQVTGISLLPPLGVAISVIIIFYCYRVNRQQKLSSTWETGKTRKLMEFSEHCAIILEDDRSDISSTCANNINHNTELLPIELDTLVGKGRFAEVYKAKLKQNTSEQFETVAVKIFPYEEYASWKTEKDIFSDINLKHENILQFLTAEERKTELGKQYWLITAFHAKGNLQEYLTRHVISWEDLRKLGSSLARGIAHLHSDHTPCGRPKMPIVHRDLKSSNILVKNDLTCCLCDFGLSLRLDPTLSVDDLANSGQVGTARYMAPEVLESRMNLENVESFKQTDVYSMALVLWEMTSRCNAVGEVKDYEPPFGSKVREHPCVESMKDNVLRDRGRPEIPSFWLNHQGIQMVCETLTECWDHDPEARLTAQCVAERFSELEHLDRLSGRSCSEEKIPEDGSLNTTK
Excerpt: as §1

kinases of Table 5 [8] = target: T1, kinases of Table 5 (Homo sapiens, UniProt P54762); conditions: kinase EPHB1 (Part II, plate B8, Domain 1); inhibitor 100 uM
T1 sequence (P54762 18-984): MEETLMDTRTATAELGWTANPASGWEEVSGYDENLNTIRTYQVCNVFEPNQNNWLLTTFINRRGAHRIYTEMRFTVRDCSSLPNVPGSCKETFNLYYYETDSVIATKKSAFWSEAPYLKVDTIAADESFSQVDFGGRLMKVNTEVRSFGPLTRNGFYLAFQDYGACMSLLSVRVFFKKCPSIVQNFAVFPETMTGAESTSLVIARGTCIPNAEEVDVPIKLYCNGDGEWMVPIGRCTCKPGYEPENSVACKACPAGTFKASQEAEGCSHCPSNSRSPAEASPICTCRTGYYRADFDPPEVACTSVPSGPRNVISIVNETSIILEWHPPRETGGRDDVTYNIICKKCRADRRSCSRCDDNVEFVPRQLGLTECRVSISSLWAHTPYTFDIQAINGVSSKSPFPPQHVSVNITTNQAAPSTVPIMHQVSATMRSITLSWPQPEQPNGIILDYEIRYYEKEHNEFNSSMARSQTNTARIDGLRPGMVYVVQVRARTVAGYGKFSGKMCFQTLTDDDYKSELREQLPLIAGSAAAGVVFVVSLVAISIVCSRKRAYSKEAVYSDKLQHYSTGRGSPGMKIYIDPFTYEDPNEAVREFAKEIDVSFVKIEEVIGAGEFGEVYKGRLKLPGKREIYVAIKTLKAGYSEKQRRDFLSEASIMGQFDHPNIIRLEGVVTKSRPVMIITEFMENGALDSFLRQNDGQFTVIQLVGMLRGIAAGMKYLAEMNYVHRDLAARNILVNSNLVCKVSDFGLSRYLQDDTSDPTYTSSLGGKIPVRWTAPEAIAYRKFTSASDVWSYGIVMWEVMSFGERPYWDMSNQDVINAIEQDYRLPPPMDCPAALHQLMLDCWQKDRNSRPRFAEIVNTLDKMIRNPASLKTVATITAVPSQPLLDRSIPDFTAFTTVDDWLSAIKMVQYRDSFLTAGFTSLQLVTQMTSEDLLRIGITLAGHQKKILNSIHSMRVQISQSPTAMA
Excerpt: as §1

kinases of Table 5 [9] = target: kinases of Table 5 (Homo sapiens, UniProt Q05655); conditions: kinase PRKCD (Part II, plate B2, Domain 0); inhibitor 100 uM
Chain of kinases of Table 5 (Homo sapiens, UniProt Q05655) (Q05655 whole entry): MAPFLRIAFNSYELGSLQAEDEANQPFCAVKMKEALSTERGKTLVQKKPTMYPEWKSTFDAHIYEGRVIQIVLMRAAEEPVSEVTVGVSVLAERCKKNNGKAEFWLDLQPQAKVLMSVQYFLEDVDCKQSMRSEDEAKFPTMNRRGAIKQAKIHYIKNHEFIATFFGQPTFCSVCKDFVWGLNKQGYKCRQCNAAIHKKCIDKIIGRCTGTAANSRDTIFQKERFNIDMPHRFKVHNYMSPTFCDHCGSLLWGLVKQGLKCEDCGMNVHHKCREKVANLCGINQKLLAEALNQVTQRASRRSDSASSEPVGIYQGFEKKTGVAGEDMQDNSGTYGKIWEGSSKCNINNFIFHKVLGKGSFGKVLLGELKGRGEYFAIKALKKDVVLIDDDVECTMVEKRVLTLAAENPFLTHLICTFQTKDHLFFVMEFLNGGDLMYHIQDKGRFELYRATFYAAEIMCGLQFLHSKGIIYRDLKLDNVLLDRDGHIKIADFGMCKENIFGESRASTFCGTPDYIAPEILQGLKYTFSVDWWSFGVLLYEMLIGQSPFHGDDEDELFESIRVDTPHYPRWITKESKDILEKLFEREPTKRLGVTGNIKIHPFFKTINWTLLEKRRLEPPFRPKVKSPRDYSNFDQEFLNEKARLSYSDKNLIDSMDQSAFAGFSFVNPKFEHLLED
Excerpt: as §1

kinases of Table 5 [10] = target: kinases of Table 5 (Homo sapiens, UniProt Q13627); conditions: kinase DYRK1A (Part I, plate G6, Domain 1); inhibitor 100 uM
Excerpt: as §1

kinases of Table 5 [11] = target: kinases of Table 5 (Homo sapiens, UniProt Q14289); conditions: kinase PTK2B (Part I, plate G5, Domain 1); inhibitor 100 uM
Chain of kinases of Table 5 (Homo sapiens, UniProt Q14289) (Q14289 whole entry): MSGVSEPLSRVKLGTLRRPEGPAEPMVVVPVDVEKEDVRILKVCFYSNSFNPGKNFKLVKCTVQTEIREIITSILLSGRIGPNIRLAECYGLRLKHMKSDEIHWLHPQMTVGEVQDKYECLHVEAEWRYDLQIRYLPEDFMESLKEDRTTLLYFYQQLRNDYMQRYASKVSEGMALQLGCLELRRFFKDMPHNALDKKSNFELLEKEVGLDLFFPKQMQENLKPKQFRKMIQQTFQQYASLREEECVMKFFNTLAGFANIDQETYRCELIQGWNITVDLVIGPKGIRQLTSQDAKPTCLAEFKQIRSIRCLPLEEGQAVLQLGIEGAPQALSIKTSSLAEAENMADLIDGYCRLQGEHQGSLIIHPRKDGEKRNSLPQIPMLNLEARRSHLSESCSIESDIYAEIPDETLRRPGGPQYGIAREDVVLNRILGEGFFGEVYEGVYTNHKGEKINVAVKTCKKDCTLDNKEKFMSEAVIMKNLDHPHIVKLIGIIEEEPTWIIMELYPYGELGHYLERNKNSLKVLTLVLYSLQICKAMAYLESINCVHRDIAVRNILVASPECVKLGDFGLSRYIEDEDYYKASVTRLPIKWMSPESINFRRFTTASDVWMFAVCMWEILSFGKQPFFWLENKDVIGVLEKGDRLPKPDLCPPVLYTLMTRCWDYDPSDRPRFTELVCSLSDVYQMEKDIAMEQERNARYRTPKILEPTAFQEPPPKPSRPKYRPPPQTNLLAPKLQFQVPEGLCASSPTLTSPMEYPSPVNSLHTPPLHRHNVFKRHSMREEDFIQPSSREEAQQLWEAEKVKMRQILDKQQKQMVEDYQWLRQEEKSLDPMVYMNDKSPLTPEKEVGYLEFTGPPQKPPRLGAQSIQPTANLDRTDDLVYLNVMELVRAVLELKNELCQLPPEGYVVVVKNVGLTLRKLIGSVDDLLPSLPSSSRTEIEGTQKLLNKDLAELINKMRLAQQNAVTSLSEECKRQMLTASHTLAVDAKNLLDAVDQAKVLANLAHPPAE
Excerpt: as §1

kinases of Table 5 [12] = target: kinases of Table 5 (Homo sapiens, UniProt Q86UE8); conditions: kinase TLK2 (Part I, plate C8, Domain 1); inhibitor 100 uM
Excerpt: as §1

kinases of Table 5 [13] = target: T2, kinases of Table 5 (Homo sapiens, UniProt Q92630); conditions: kinase DYRK2 (Part II, plate D11, Domain 1); inhibitor 100 uM
T2 sequence (Q92630 1-601): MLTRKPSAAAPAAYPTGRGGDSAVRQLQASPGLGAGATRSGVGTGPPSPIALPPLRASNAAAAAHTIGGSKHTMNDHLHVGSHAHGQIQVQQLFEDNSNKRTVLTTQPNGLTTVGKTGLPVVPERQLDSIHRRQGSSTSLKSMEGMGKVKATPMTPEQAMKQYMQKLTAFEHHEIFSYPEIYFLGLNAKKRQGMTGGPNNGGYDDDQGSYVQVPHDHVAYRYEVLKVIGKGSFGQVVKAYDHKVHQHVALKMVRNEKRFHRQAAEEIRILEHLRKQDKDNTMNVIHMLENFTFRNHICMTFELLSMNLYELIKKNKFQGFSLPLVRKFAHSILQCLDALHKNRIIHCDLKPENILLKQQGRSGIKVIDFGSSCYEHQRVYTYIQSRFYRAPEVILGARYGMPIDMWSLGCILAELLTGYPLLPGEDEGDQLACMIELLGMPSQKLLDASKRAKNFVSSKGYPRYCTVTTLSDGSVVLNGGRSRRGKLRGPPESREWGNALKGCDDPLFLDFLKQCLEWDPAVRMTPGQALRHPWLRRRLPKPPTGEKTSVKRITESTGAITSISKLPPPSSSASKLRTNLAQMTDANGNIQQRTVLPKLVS
Excerpt: as §1

[14] = kinase FGFR2 (Part I, plate G8, Domain 1)
[15] = kinase FGFR2 (Part II, plate B4, Domain 1)

SMILES	Inhibition Results (Level) (kinases of Table 5 [1])	Inhibition Results (Level) (kinases of Table 5 [2])	Inhibition Results (Level) (kinases of Table 5 [3])	Inhibition Results (Level) (kinases of Table 5 [4])	Inhibition Results (Level) (kinases of Table 5 [5])	Inhibition Results (Level) (kinases of Table 5 [6]; [14])	Inhibition Results (Level) (kinases of Table 5 [6]; [15])	Inhibition Results (Level) (kinases of Table 5 [7])	Inhibition Results (Level) (kinases of Table 5 [8])	Inhibition Results (Level) (kinases of Table 5 [9])	Inhibition Results (Level) (kinases of Table 5 [10])	Inhibition Results (Level) (kinases of Table 5 [11])	Inhibition Results (Level) (kinases of Table 5 [12])	Inhibition Results (Level) (kinases of Table 5 [13])
CC(=O)c1c(O)c(C)c(O)c(Cc2c(O)c3c(c(C(=O)/C=C/c4ccccc4)c2O)OC(C)(C)C=C3)c1O [Rottlerin (Mallotoxin)]	0	2	2	0	2	2	0	2	1	0	0	2	2	2
O=S(=O)(NCCNC/C=C/c1ccc(Br)cc1)c1cccc2cnccc12 [H-89]	2	2	2	0	2	2	2	2	1	1	2	1	2	2
